Laboratory results taken from US10485235B2, “Aryloxypyrimidinyl ethers as herbicides” (FMC Corporation, priority 2015, dated 2019).

tested on: foxtail, giant (giant foxtail, Setaria faberii); experiment: Test A preemergence, giant foxtail; assay type: in vivo; details: Preemergence, 125 g ai/ha; 0 to 100 scale (0 no effect, 100 complete control)
Summary of the method: (§1)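 Test chemicals in a solvent/surfactant mixture were applied as a preemergence directed soil spray on seeded loam–sand, or postemergence to plants 2–10 cm tall at the one- to two-leaf stage. After roughly 10 days in a greenhouse, injury was visually rated versus untreated controls on a 0 (no effect) to 100 (complete control) scale.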

Structure (SMILES)	Plant response rating, Foxtail, Giant
N#Cc1cccc(Oc2ncc(Cl)cn2)c1OCC(F)(F)C(F)F [Compound 14]	100

same assay, conditions: Preemergence, 500 g ai/ha; 0 to 100 scale (0 no effect, 100 complete control)

Structure (SMILES)	Plant response rating, Foxtail, Giant
N#Cc1cccc(Oc2ncc(Cl)cn2)c1OCC(F)(F)C(F)F [Compound 14]	100

tested on: wheat (Triticum aestivum); experiment: Test A postemergence, wheat; assay type: in vivo; details: 125 g ai/ha, postemergence; 0 to 100 scale, 0 is no effect, 100 is complete control; approximately 10 days
Summary of the method: as §1

Structure (SMILES)	Plant response rating, Wheat
N#Cc1cccc(Oc2ncc(Cl)cn2)c1OCC(F)(F)C(F)F [Compound 14]	20

same assay, conditions: 500 g ai/ha, postemergence; 0 to 100 scale, 0 is no effect, 100 is complete control; approximately 10 days

Structure (SMILES)	Plant response rating, Wheat
N#Cc1cccc(Oc2ncc(Cl)cn2)c1OCC(F)(F)C(F)F [Compound 14]	40

tested on: galium (catchweed bedstraw, Galium aparine); experiment: Test A postemergence, galium; assay type: in vivo; details: 125 g ai/ha, postemergence; 0 to 100 scale, 0 is no effect, 100 is complete control; approximately 10 days
Summary of the method: as §1

Structure (SMILES)	Plant response rating, Galium
N#Cc1cccc(Oc2ncc(Cl)cn2)c1OCC(F)(F)C(F)F [Compound 14]	50

same assay, conditions: 500 g ai/ha, postemergence; 0 to 100 scale, 0 is no effect, 100 is complete control; approximately 10 days

Structure (SMILES)	Plant response rating, Galium
N#Cc1cccc(Oc2ncc(Cl)cn2)c1OCC(F)(F)C(F)F [Compound 14]	100

tested on: ryegrass, Italian (Italian ryegrass, Lolium multiflorum); experiment: Test A postemergence, Italian ryegrass; assay type: in vivo; details: 125 g ai/ha, postemergence; 0 to 100 scale, 0 is no effect, 100 is complete control; approximately 10 days
Summary of the method: as §1

Structure (SMILES)	Plant response rating, Ryegrass, Italian
N#Cc1cccc(Oc2ncc(Cl)cn2)c1OCC(F)(F)C(F)F [Compound 14]	10

same assay, conditions: 500 g ai/ha, postemergence; 0 to 100 scale, 0 is no effect, 100 is complete control; approximately 10 days

Structure (SMILES)	Plant response rating, Ryegrass, Italian
N#Cc1cccc(Oc2ncc(Cl)cn2)c1OCC(F)(F)C(F)F [Compound 14]	50

tested on: barnyardgrass (Echinochloa crus-galli); experiment: Test B flooded paddy test, barnyardgrass; assay type: in vivo; details: 250 g ai/ha, Flood; visual rating after 13 to 15 days; scale 0 to 100, 0 is no effect, 100 is complete control
Summary of the method: (§2)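 Visual ratings, 0 = no effect to 100 = complete control, versus controls after 13 to 15 days in greenhouse. Test compounds were added to paddy water kept 3 cm over the soil surface, on plants at 2-leaf stage.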

Structure (SMILES)	Plant response rating, Barnyardgrass
N#Cc1cccc(Oc2ncc(Cl)cn2)c1OCC(F)(F)C(F)F [Compound 14]	0

tested on: blackgrass (Alopecurus myosuroides); experiment: Test A postemergence, blackgrass; assay type: in vivo; details: 125 g ai/ha, postemergence; 0 to 100 scale, 0 is no effect, 100 is complete control; approximately 10 days
Summary of the method: as §1

Structure (SMILES)	Plant response rating, Blackgrass
N#Cc1cccc(Oc2ncc(Cl)cn2)c1OCC(F)(F)C(F)F [Compound 14]	60

same assay, conditions: 500 g ai/ha, postemergence; 0 to 100 scale, 0 is no effect, 100 is complete control; approximately 10 days

Structure (SMILES)	Plant response rating, Blackgrass
N#Cc1cccc(Oc2ncc(Cl)cn2)c1OCC(F)(F)C(F)F [Compound 14]	90

tested on: barnyardgrass (Echinochloa crus-galli); experiment: Test A preemergence, barnyardgrass; assay type: in vivo; details: Preemergence, 125 g ai/ha; 0 to 100 scale (0 no effect, 100 complete control)
Summary of the method: as §1

Structure (SMILES)	Plant response rating, Barnyardgrass
N#Cc1cccc(Oc2ncc(Cl)cn2)c1OCC(F)(F)C(F)F [Compound 14]	90

same assay, conditions: Preemergence, 500 g ai/ha; 0 to 100 scale (0 no effect, 100 complete control)

Structure (SMILES)	Plant response rating, Barnyardgrass
N#Cc1cccc(Oc2ncc(Cl)cn2)c1OCC(F)(F)C(F)F [Compound 14]	100

tested on: barnyardgrass (Echinochloa crus-galli); experiment: Test A postemergence, barnyardgrass; assay type: in vivo; details: 125 g ai/ha, postemergence; 0 to 100 scale, 0 is no effect, 100 is complete control; approximately 10 days
Summary of the method: as §1

Structure (SMILES)	Plant response rating, Barnyardgrass
N#Cc1cccc(Oc2ncc(Cl)cn2)c1OCC(F)(F)C(F)F [Compound 14]	80

same assay, conditions: 500 g ai/ha, postemergence; 0 to 100 scale, 0 is no effect, 100 is complete control; approximately 10 days

Structure (SMILES)	Plant response rating, Barnyardgrass
N#Cc1cccc(Oc2ncc(Cl)cn2)c1OCC(F)(F)C(F)F [Compound 14]	100

tested on: ragweed (common ragweed, Ambrosia elatior); experiment: Test A preemergence, ragweed; assay type: in vivo; details: Preemergence, 125 g ai/ha; 0 to 100 scale (0 no effect, 100 complete control)
Summary of the method: as §1

Structure (SMILES)	Plant response rating, Ragweed
N#Cc1cccc(Oc2ncc(Cl)cn2)c1OCC(F)(F)C(F)F [Compound 14]	0

same assay, conditions: Preemergence, 500 g ai/ha; 0 to 100 scale (0 no effect, 100 complete control)

Structure (SMILES)	Plant response rating, Ragweed
N#Cc1cccc(Oc2ncc(Cl)cn2)c1OCC(F)(F)C(F)F [Compound 14]	0

tested on: rice (Oryza sativa); experiment: Test B flooded paddy test, rice; assay type: in vivo; details: 250 g ai/ha, Flood; visual rating after 13 to 15 days; scale 0 to 100, 0 is no effect, 100 is complete control
Summary of the method: as §2

Structure (SMILES)	Plant response rating, Rice
N#Cc1cccc(Oc2ncc(Cl)cn2)c1OCC(F)(F)C(F)F [Compound 14]	0

tested on: ducksalad (Heteranthera limosa); experiment: Test B flooded paddy test, ducksalad; assay type: in vivo; details: 250 g ai/ha, Flood; visual rating after 13 to 15 days; scale 0 to 100, 0 is no effect, 100 is complete control
Summary of the method: as §2

Structure (SMILES)	Plant response rating, Ducksalad
N#Cc1cccc(Oc2ncc(Cl)cn2)c1OCC(F)(F)C(F)F [Compound 14]	0

tested on: kochia (Kochia scoparia); experiment: Test A postemergence, kochia; assay type: in vivo; details: 125 g ai/ha, postemergence; 0 to 100 scale, 0 is no effect, 100 is complete control; approximately 10 days
Summary of the method: as §1

Structure (SMILES)	Plant response rating, Kochia
N#Cc1cccc(Oc2ncc(Cl)cn2)c1OCC(F)(F)C(F)F [Compound 14]	100

same assay, conditions: 500 g ai/ha, postemergence; 0 to 100 scale, 0 is no effect, 100 is complete control; approximately 10 days

Structure (SMILES)	Plant response rating, Kochia
N#Cc1cccc(Oc2ncc(Cl)cn2)c1OCC(F)(F)C(F)F [Compound 14]	100

tested on: pigweed (Amaranthus retroflexus); experiment: Test A postemergence, pigweed; assay type: in vivo; details: 125 g ai/ha, postemergence; 0 to 100 scale, 0 is no effect, 100 is complete control; approximately 10 days
Summary of the method: as §1

Structure (SMILES)	Plant response rating, Pigweed
N#Cc1cccc(Oc2ncc(Cl)cn2)c1OCC(F)(F)C(F)F [Compound 14]	100

same assay, conditions: 500 g ai/ha, postemergence; 0 to 100 scale, 0 is no effect, 100 is complete control; approximately 10 days

Structure (SMILES)	Plant response rating, Pigweed
N#Cc1cccc(Oc2ncc(Cl)cn2)c1OCC(F)(F)C(F)F [Compound 14]	100

tested on: sedge, umbrella (small-flower umbrella sedge, Cyperus difformis); experiment: Test B flooded paddy test, umbrella sedge; assay type: in vivo; details: 250 g ai/ha, Flood; visual rating after 13 to 15 days; scale 0 to 100, 0 is no effect, 100 is complete control
Summary of the method: as §2

Structure (SMILES)	Plant response rating, Sedge, Umbrella
N#Cc1cccc(Oc2ncc(Cl)cn2)c1OCC(F)(F)C(F)F [Compound 14]	0

tested on: pigweed (Amaranthus retroflexus); experiment: Test A preemergence, pigweed; assay type: in vivo; details: Preemergence, 125 g ai/ha; 0 to 100 scale (0 no effect, 100 complete control)
Summary of the method: as §1

Structure (SMILES)	Plant response rating, Pigweed
N#Cc1cccc(Oc2ncc(Cl)cn2)c1OCC(F)(F)C(F)F [Compound 14]	100

same assay, conditions: Preemergence, 500 g ai/ha; 0 to 100 scale (0 no effect, 100 complete control)

Structure (SMILES)	Plant response rating, Pigweed
N#Cc1cccc(Oc2ncc(Cl)cn2)c1OCC(F)(F)C(F)F [Compound 14]	100

tested on: ragweed (common ragweed, Ambrosia elatior); experiment: Test A postemergence, ragweed; assay type: in vivo; details: 125 g ai/ha, postemergence; 0 to 100 scale, 0 is no effect, 100 is complete control; approximately 10 days
Summary of the method: as §1

Structure (SMILES)	Plant response rating, Ragweed
N#Cc1cccc(Oc2ncc(Cl)cn2)c1OCC(F)(F)C(F)F [Compound 14]	10

same assay, conditions: 500 g ai/ha, postemergence; 0 to 100 scale, 0 is no effect, 100 is complete control; approximately 10 days

Structure (SMILES)	Plant response rating, Ragweed
N#Cc1cccc(Oc2ncc(Cl)cn2)c1OCC(F)(F)C(F)F [Compound 14]	20

tested on: kochia (Kochia scoparia); experiment: Test A preemergence, kochia; assay type: in vivo; details: Preemergence, 125 g ai/ha; 0 to 100 scale (0 no effect, 100 complete control)
Summary of the method: as §1

Structure (SMILES)	Plant response rating, Kochia
N#Cc1cccc(Oc2ncc(Cl)cn2)c1OCC(F)(F)C(F)F [Compound 14]	90

same assay, conditions: Preemergence, 500 g ai/ha; 0 to 100 scale (0 no effect, 100 complete control)

Structure (SMILES)	Plant response rating, Kochia
N#Cc1cccc(Oc2ncc(Cl)cn2)c1OCC(F)(F)C(F)F [Compound 14]	100

tested on: corn (Zea mays); experiment: Test A postemergence, corn; assay type: in vivo; details: 125 g ai/ha, postemergence; 0 to 100 scale, 0 is no effect, 100 is complete control; approximately 10 days
Summary of the method: as §1

Structure (SMILES)	Plant response rating, Corn
N#Cc1cccc(Oc2ncc(Cl)cn2)c1OCC(F)(F)C(F)F [Compound 14]	20

same assay, conditions: 500 g ai/ha, postemergence; 0 to 100 scale, 0 is no effect, 100 is complete control; approximately 10 days

Structure (SMILES)	Plant response rating, Corn
N#Cc1cccc(Oc2ncc(Cl)cn2)c1OCC(F)(F)C(F)F [Compound 14]	50

tested on: foxtail, giant (giant foxtail, Setaria faberii); experiment: Test A postemergence, giant foxtail; assay type: in vivo; details: 125 g ai/ha, postemergence; 0 to 100 scale, 0 is no effect, 100 is complete control; approximately 10 days
Summary of the method: as §1

Structure (SMILES)	Plant response rating, Foxtail, Giant
N#Cc1cccc(Oc2ncc(Cl)cn2)c1OCC(F)(F)C(F)F [Compound 14]	80

same assay, conditions: 500 g ai/ha, postemergence; 0 to 100 scale, 0 is no effect, 100 is complete control; approximately 10 days

Structure (SMILES)	Plant response rating, Foxtail, Giant
N#Cc1cccc(Oc2ncc(Cl)cn2)c1OCC(F)(F)C(F)F [Compound 14]	100

tested on: ryegrass, Italian (Italian ryegrass, Lolium multiflorum); experiment: Test A preemergence, Italian ryegrass; assay type: in vivo; details: Preemergence, 125 g ai/ha; 0 to 100 scale (0 no effect, 100 complete control)
Summary of the method: as §1

Structure (SMILES)	Plant response rating, Ryegrass, Italian
N#Cc1cccc(Oc2ncc(Cl)cn2)c1OCC(F)(F)C(F)F [Compound 14]	10

same assay, conditions: Preemergence, 500 g ai/ha; 0 to 100 scale (0 no effect, 100 complete control)

Structure (SMILES)	Plant response rating, Ryegrass, Italian
N#Cc1cccc(Oc2ncc(Cl)cn2)c1OCC(F)(F)C(F)F [Compound 14]	70
